The source of these data is patent publication US11028087B2, “2,6-disubstituted-9-cyclopentyl-9H-purines, use thereof as medicaments, and pharmaceutical compositions” (UNIVERZITA PALACKEHO V OLOMOUCI, priority 2017, dated 2021).

Some results are limits rather than exact numbers.

Assay [1] deals with EOL-1 (eosinophilic leukaemia, carrying the fusion FIP1L1-PDGFRA). Briefly: Calcein AM cytotoxicity assay. In kind it is cell-based. Conditions: Homo sapiens, EOL1, 72 h; EOL-1; Calcein AM, three days; read-out: EC50 values (μM) EOL-1. A digest of the protocol: (§1)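 Cells seeded one day before compound addition (various concentrations, triplicates) and exposed for three days at 37° C, 5% CO2. Viability then read as esterase-generated green calcein fluorescence after 1 h with Calcein AM at 1 μg/ml final; signal reflects number of viable cells.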

The subject of assay [2] is K562. Briefly: Calcein AM cytotoxicity assay. In kind it is cell-based. Particulars: Homo sapiens, 72 h; K562; Calcein AM, three days; read-out: EC50 values (μM) K562. A digest of the protocol:
as §1

Assay [3] has as its system MCF-7. Briefly: Calcein AM cytotoxicity assay. In kind it is cell-based. Particulars: Homo sapiens, MCF7, 72 h; MCF-7; Calcein AM, three days; read-out: EC50 values (μM) MCF-7. A digest of the protocol: as §1
The test system of assay [4] is MOLM-13 (acute myeloid leukemia, FLT3-ITD positive). Briefly: Calcein AM cytotoxicity assay. Conditions: Homo sapiens, 72 h; MOLM-13; Calcein AM, three days; read-out: EC50 values (μM) MOLM-13. In kind it is cell-based. A digest of the protocol: as §1
For assay [5], the system named is MV4-11 (acute myeloid leukemia, FLT3-ITD positive). Briefly: Calcein AM cytotoxicity assay. The assay is classed as cell-based. Particulars: Homo sapiens, 72 h; MV4-11; Calcein AM, three days after drug addition; read-out: EC50 values (μM) MV4-11. The essentials:
as §1

The subject of assay [6] is THP-1 (acute myeloid leukemia, wt FLT3). Briefly: Calcein AM cytotoxicity assay. Conditions: Homo sapiens, 72 h; THP-1; Calcein AM, three days; read-out: EC50 values (μM) THP-1. In kind it is cell-based. A digest of the protocol:
as §1

Assay [7] has as its system U937 (monocytic leukemia, wt FLT3). Briefly: Calcein AM cytotoxicity assay. In kind it is cell-based. Conditions: Homo sapiens, U-937, 72 h; U937; Calcein AM, three days; read-out: EC50 values (μM) U937. The essentials: as §1
The target of assay [8] is T1, CDK2/Cyclin E (Homo sapiens, UniProt P24941).
T1 construct: made in house; host or cells: Sf9 insect cells, baculoviral infection
Briefly: Kinase inhibition assay with [γ-33P]ATP. The assay is classed as biochemical. Particulars: histone H1, 15 μM ATP; read-out: IC50 values (μM) CDK2. A digest of the protocol:
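Human CDK2/Cyclin E, expressed in baculovirus-infected Sf9 insect cells and purified on a NiNTA column, was assayed with 1 mg/mL histone H1 substrate, 15 μM ATP plus 0.05 μCi [γ-33P]ATP and test compound in 10 μL of buffer (60 mM HEPES-NaOH pH 7.5, 3 mM MgCl2, 3 mM MnCl2, 3 μM Na-orthovanadate, 1.2 mM DTT, PEG20,000). Reactions were quenched with 5 μL 3% H3PO4, spotted onto P-81 phosphocellulose, washed and dried.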

The target in assay [9] is T2, FLT3 D835 (Homo sapiens, UniProt P36888).
T2 sequence (P36888 1-993 D835Y): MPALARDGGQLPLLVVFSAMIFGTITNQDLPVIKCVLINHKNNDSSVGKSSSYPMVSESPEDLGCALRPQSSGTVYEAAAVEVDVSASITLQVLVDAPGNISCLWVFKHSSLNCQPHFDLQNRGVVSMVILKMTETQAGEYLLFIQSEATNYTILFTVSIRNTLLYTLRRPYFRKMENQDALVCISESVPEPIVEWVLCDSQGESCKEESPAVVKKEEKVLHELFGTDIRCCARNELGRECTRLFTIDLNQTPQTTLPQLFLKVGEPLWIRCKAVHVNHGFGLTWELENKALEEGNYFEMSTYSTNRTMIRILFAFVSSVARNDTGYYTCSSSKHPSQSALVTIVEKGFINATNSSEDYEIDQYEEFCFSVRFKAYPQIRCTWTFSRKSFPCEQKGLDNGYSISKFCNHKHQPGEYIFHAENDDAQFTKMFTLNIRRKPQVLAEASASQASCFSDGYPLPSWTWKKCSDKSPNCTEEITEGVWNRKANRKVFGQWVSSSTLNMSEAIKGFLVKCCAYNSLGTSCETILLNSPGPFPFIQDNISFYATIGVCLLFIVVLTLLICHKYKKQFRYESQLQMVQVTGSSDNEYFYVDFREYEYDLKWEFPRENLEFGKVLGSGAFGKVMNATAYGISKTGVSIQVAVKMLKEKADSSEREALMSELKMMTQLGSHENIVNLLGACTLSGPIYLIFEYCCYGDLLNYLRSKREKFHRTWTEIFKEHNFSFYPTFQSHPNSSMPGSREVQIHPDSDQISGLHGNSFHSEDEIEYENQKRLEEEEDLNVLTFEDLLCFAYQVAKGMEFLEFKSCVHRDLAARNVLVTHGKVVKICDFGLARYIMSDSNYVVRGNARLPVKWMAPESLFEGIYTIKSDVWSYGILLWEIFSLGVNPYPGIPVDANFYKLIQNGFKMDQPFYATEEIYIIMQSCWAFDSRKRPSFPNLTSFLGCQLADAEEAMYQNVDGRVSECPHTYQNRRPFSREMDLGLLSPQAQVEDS
Briefly: Kinase inhibition assay with [γ-33P]ATP. The assay is classed as biochemical. Conditions: AGLT substrate, 1 μM ATP.

On to `NC1CCC(Nc2nc(Nc3ccc(N4CCOCC4)cc3)c3ncn(C4CCCC4)c3n2)CC1` (stereo not drawn) [Compound 1], for which the concentration giving a half-maximal response (EC50) – broadly, the concentration that produces a half-maximal response – is 0.008 µM in [1]; 1.19 µM in [2]; 0.32 µM in [3]; 0.004 µM in assay [4]; 0.001 µM in assay [5]; 1.01 µM in assay [6]. Further, the EC50 in assay [7] is 2.13 µM. In addition, the results for the concentration for half-maximal inhibition (IC50) in assay [8] and in assay [9] were 0.017 µM and 0.007 µM, respectively.
For `NC1CCC(Nc2nc(Nc3ccc(CN4CCNCC4)cc3)c3ncn(C4CCCC4)c3n2)CC1` (stereo not drawn) [Compound 2], the EC50 in assay [1] was 0.023 µM; in assay [2], 1.57 µM; in assay [3], 0.52 µM; in assay [4], 0.015 µM; in assay [5], 0.01 µM; in assay [6], 2.28 µM. The concentration for a half-maximal effect (EC50) in [7] was 1.8 µM. Also, the values for the 50% inhibitory concentration (IC50) in [8] and in [9] were 0.008 µM and 0.003 µM, respectively.
As to `CN1CCN(C(=O)c2ccc(Nc3nc(NC4CCC(N)CC4)nc4c3ncn4C3CCCC3)cc2)CC1` (stereo not drawn) [Compound 3], the EC50 was 0.015 µM in assay [1]; 1.23 µM in [2]; 0.273 µM in assay [3]; 0.02 µM in assay [4]; 0.018 µM in assay [5]; 3.02 µM in assay [6]. Besides, the EC50 in [7] is 3.66 µM. Besides, the results for the IC50 in assay [8] and in [9] were 0.004 µM and 0.003 µM, respectively.
For `CN1CC2(C1)CN(c1ccc(Nc3nc(NC4CCC(O)CC4)nc4c3ncn4C3CCCC3)cc1)C2` (stereo not drawn) [Compound 7], the results for the IC50 in assay [8] and in assay [9] were 0.006 µM and 0.011 µM, respectively.
In the case of `NCCNc1nc(Nc2ccc(CN3CCNCC3)cc2)c2ncn(C3CCCC3)c2n1` [Compound 14], the concentration for a half-maximal effect (EC50) in assay [1] is 0.054 µM; in assay [2] it was 1.56 µM; in assay [3], 1.52 µM; in assay [4], 0.025 µM; in assay [5], 0.083 µM; in [6] it was 1.86 µM. The EC50 in [7] is 1.45 µM. Further, the results for the half-inhibitory concentration (IC50) in [8] and in [9] were 0.004 µM and 0.01 µM, respectively.
Consider `CN1CCN(C(=O)c2ccc(Nc3nc(NCCCCN)nc4c3ncn4C3CCCC3)cc2)CC1` [Compound 27], for which the EC50 in assay [1] was 0.053 µM; in assay [2], 0.57 µM; in [3], 0.265 µM; in assay [4], 0.019 µM; in assay [5], 0.024 µM; in assay [6], 0.624 µM. In assay [7], the EC50 was 0.794 µM. Besides, the values for the half-maximal inhibitory concentration (IC50) in assay [8] and in assay [9] were 0.002 µM and 0.011 µM, respectively.
Turning to `NCCCCNc1nc(Nc2ccc(N3CC4(COC4)C3)nc2)c2ncn(C3CCCC3)c2n1` [Compound 28], the EC50 is 0.013 µM in assay [1]; 1.05 µM in assay [2]; 0.925 µM in [3]; 0.004 µM in assay [4]; 0.001 µM in assay [5]; 0.514 µM in assay [6]. The EC50 in assay [7] is 0.605 µM. Besides, the IC50 (usually the concentration that gives 50% inhibition) amounted to 0.028 µM in assay [8] and 0.002 µM in [9].
With `CN(C)CCNc1nc(Nc2ccc(CN3CCOCC3)nc2)c2ncn(C3CCCC3)c2n1` [Compound 172], the concentration for a half-maximal effect (EC50) in assay [1] is 0.014 µM; in assay [2] it was 1.16 µM; in [3], 0.43 µM; in assay [4], 0.017 µM; in assay [5] it was 0.003 µM; in assay [6] it was 1.52 µM. Further, the EC50 in assay [7] was 1.48 µM. In addition, the IC50 in assay [8] turned out to be 0.016 µM; in assay [9] it was 0.005 µM.
For the compound `CN(C)CCCNc1nc(Nc2ccc(C(=O)N3CCOCC3)nc2)c2ncn(C3CCCC3)c2n1` [Compound 179], the EC50 in [1] was 0.225 µM; in assay [3] it was 2.21 µM; in assay [4], 0.078 µM; in assay [5] it was 0.013 µM; in assay [6], over 4 µM. Further, the half-maximal inhibitory concentration (IC50) in assay [8] came to 0.04 µM; in assay [9] it was 0.023 µM.
Regarding `NC1CCC(Nc2nc(Nc3ccc(N4CCCC4)cc3)c3ncn(C4CCCC4)c3n2)CC1` (stereo not drawn) [Compound 263], the half-maximal effective concentration (EC50) in assay [1] is 0.03 µM; in [2] it was 1.27 µM; in assay [3], 1.33 µM; in assay [4], 0.024 µM; in assay [5] it was 0.018 µM; in assay [6] it was 3.11 µM. In [7], the concentration for a half-maximal effect (EC50) is 3.17 µM. Moreover, the IC50 in [8] came to 0.031 µM; in assay [9], 0.011 µM.
For the compound `NC1CCC(Nc2nc(Nc3ccc(CN4CCOCC4)cc3)c3ncn(C4CCCC4)c3n2)CC1` (stereo not drawn) [Compound 264], the figures for the IC50 in [8] and in assay [9] were 0.007 µM and 0.009 µM, respectively.
`NCCCCNc1nc(Nc2ccc(N3CCOCC3)cc2)c2ncn(C3CCCC3)c2n1` [Compound 265]: the EC50 is 0.039 µM in assay [1]; 3.74 µM in assay [2]; 3.25 µM in [3]; 0.016 µM in [4]; 0.017 µM in assay [5]; over 4 µM in assay [6]. For the same compound, in [7], the 50% effective concentration (EC50) is over 4 µM. The concentration for half-maximal inhibition (IC50) in assay [8] turned out to be 0.642 µM; in [9], 0.007 µM.
In the case of `CCN1CCN(c2ccc(Nc3nc(NCCCCN)nc4c3ncn4C3CCCC3)cc2)CC1` [Compound 266], the concentration for a half-maximal effect (EC50) in assay [1] was 0.074 µM; in assay [2], 1.43 µM; in [3], 2.15 µM; in assay [4] it was 0.014 µM; in assay [5], 0.018 µM; in [6], 2.99 µM. The EC50 in [7] was 3.77 µM. The results for the IC50 in [8] and in [9] were 0.586 µM and 0.003 µM, respectively.
For `NCCCCNc1nc(Nc2ccc(CN3CCOCC3)cc2)c2ncn(C3CCCC3)c2n1` [Compound 270], the EC50 in assay [2] was 1.81 µM; in [3], 2.1 µM; in assay [4], 0.014 µM; in assay [5] it was 0.029 µM; in assay [6], 1.24 µM; in assay [7], over 4 µM. Further, the results for the 50% inhibitory concentration (IC50) in [8] and in [9] were 0.625 µM and 0.005 µM, respectively.
For `NC1CCC(Nc2nc(Nc3ccc(N4CC5(COC5)C4)cc3)c3ncn(C4CCCC4)c3n2)CC1` (stereo not drawn) [Compound 272], the half-maximal effective concentration (EC50) in assay [1] is 0.022 µM; in assay [2], 1.18 µM; in assay [3] it was 1.05 µM; in assay [4], 0.004 µM; in assay [5], 0.003 µM; in assay [6], 0.693 µM. In assay [7], the EC50 was 0.638 µM. Moreover, the IC50 in [8] stood at 0.025 µM.
